Where “and” joins values, the source holds several entries; their conditions need not be identical. Identical values can stand only once.
Columns and labels:
Assay in all cases: Kinase inhibitor specificity profiling (Reaction Biology Corporation)
Type in all cases: biochemical
Design in all cases: % Enzyme Activity (relative to DMSO controls): concentration or dose not given beside the values
[1] = target: T1, panel of 370 protein kinases (Homo sapiens, UniProt O15111); settings: 2 h, kinase IKKa/CHUK; read-out: % Enzyme Activity (relative to DMSO controls)
T1 construct: purchased Reaction Biology Corporation (assay service)

[2] = target: T2, panel of 370 protein kinases (Homo sapiens, UniProt O75385); settings: kinase ULK1
T2 construct: purchased Reaction Biology Corporation (assay service)
T2 sequence (O75385 whole entry): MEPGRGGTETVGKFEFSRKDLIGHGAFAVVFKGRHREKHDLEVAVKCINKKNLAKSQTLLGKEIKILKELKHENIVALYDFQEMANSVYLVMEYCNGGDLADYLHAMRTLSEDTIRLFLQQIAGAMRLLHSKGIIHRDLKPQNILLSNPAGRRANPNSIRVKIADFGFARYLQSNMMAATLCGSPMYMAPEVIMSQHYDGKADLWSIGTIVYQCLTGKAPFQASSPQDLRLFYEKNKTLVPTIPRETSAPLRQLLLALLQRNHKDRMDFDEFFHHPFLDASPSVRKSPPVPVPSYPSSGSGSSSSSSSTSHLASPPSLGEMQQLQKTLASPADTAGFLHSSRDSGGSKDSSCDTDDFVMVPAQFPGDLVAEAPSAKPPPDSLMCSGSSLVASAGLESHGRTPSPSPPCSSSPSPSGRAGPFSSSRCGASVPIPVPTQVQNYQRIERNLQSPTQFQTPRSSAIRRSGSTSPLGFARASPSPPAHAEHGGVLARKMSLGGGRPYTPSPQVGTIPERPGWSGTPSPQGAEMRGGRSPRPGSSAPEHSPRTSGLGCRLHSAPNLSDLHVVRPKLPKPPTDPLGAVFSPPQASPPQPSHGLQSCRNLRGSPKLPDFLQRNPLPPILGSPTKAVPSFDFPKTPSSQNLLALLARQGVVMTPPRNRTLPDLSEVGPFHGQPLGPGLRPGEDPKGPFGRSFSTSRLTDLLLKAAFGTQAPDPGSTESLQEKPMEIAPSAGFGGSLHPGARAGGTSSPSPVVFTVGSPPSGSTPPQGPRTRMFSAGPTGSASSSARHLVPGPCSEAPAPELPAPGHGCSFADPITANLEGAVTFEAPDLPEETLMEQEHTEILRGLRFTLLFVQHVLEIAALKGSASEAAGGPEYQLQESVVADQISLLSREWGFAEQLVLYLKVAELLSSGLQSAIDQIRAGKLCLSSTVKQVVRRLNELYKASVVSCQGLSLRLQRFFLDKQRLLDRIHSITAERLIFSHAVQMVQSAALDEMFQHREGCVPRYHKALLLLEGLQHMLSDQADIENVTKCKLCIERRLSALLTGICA

[3] = target: T3, panel of 370 protein kinases (Homo sapiens, UniProt O94804); settings: kinase LOK/STK10
T3 construct: purchased Reaction Biology Corporation (assay service)
T3 sequence (O94804 whole entry): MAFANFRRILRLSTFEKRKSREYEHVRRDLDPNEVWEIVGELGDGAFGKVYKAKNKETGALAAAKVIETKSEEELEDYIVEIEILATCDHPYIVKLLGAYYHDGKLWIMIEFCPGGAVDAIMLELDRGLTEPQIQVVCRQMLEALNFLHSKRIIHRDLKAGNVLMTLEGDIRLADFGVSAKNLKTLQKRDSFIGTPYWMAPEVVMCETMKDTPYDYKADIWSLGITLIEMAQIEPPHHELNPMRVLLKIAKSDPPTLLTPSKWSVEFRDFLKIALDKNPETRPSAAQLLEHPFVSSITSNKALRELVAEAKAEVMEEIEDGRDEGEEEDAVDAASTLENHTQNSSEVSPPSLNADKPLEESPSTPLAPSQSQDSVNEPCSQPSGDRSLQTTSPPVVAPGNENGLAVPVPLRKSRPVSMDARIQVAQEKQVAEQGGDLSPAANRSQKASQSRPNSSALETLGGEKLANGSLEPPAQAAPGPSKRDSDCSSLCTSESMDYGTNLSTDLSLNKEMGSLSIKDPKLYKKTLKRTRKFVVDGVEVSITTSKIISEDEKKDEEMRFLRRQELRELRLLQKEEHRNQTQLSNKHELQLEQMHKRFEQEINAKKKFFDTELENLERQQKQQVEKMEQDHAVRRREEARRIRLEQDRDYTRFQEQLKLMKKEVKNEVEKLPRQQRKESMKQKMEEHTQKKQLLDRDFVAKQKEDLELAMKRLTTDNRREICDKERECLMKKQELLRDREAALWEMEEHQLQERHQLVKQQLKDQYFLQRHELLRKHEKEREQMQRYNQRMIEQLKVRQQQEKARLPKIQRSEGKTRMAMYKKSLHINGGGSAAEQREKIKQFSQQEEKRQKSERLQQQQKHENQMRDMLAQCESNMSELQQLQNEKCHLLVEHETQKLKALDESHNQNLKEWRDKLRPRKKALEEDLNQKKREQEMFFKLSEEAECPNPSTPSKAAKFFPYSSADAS

[4] = target: T4, panel of 370 protein kinases (Homo sapiens, UniProt P00533); settings: kinase EGFR
T4 construct: purchased Reaction Biology Corporation (assay service)
T4 sequence (P00533 25-1210): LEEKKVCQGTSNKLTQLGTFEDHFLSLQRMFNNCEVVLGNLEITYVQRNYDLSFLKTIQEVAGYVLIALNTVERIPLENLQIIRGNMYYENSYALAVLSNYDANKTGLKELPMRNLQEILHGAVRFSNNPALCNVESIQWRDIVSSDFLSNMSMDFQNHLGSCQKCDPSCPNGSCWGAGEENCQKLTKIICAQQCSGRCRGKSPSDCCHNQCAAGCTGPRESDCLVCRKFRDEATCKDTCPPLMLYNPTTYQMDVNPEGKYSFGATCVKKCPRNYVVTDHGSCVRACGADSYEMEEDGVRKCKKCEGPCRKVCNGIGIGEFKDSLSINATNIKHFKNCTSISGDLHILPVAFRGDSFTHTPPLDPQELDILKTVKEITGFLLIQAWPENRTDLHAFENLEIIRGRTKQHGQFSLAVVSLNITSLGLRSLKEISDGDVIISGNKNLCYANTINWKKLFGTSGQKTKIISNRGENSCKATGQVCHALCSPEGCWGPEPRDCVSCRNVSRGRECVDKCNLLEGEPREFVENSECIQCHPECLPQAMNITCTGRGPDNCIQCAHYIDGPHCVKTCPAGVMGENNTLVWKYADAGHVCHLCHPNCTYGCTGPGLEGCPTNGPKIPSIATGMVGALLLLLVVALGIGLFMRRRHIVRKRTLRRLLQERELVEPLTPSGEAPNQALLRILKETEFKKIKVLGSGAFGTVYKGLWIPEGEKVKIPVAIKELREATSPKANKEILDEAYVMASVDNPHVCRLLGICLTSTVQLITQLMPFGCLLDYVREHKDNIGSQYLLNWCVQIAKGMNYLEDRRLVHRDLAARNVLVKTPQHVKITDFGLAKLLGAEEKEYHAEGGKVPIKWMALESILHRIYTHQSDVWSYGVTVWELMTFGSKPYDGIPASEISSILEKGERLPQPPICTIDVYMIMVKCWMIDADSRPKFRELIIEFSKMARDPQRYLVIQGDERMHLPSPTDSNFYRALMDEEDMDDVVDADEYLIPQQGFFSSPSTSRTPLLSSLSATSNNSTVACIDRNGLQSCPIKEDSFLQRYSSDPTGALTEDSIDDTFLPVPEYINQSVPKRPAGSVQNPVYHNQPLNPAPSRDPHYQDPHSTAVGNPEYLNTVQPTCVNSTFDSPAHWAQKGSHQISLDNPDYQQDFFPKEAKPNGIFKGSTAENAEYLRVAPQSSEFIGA

[5] = target: T5, panel of 370 protein kinases (Homo sapiens, UniProt P04049); settings: 2 h, kinase RAF1; read-out: % Enzyme Activity (relative to DMSO controls)
T5 construct: purchased Reaction Biology Corporation (assay service)

[6] = target: T6, panel of 370 protein kinases (Homo sapiens, UniProt P08922); settings: 2 h, kinase ROS/ROS1; read-out: % Enzyme Activity (relative to DMSO controls)
T6 construct: purchased Reaction Biology Corporation (assay service)

[7] = target: T7, panel of 370 protein kinases (Homo sapiens, UniProt P17252); settings: 2 h, kinase PKCa; read-out: % Enzyme Activity (relative to DMSO controls)
T7 construct: purchased Reaction Biology Corporation (assay service)

[8] = target: T8, panel of 370 protein kinases (Homo sapiens, UniProt P17612); settings: 2 h, kinase PKA; read-out: % Enzyme Activity (relative to DMSO controls)
T8 construct: purchased Reaction Biology Corporation (assay service)

[9] = target: T9, panel of 370 protein kinases (Homo sapiens, UniProt P35968); settings: 2 h, kinase KDR/VEGFR2; read-out: % Enzyme Activity (relative to DMSO controls)
T9 construct: purchased Reaction Biology Corporation (assay service)

[10] = target: T10, panel of 370 protein kinases (Homo sapiens, UniProt P53667); settings: 2 h, kinase LIMK1; read-out: % Enzyme Activity (relative to DMSO controls)
T10 construct: purchased Reaction Biology Corporation (assay service)

[11] = target: T11, panel of 370 protein kinases (Homo sapiens, UniProt Q13557); settings: 2 h, kinase CAMK2d; read-out: % Enzyme Activity (relative to DMSO controls)
T11 construct: purchased Reaction Biology Corporation (assay service)

[12] = target: T12, panel of 370 protein kinases (Homo sapiens, UniProt Q15139); settings: 2 h, kinase PKCmu/PRKD1; read-out: % Enzyme Activity (relative to DMSO controls)
T12 construct: purchased Reaction Biology Corporation (assay service)

[13] = target: T13, panel of 370 protein kinases (Homo sapiens, UniProt Q15831); settings: 2 h, kinase LKB1; read-out: % Enzyme Activity (relative to DMSO controls)
T13 construct: purchased Reaction Biology Corporation (assay service)
T13 sequence (Q15831 whole entry): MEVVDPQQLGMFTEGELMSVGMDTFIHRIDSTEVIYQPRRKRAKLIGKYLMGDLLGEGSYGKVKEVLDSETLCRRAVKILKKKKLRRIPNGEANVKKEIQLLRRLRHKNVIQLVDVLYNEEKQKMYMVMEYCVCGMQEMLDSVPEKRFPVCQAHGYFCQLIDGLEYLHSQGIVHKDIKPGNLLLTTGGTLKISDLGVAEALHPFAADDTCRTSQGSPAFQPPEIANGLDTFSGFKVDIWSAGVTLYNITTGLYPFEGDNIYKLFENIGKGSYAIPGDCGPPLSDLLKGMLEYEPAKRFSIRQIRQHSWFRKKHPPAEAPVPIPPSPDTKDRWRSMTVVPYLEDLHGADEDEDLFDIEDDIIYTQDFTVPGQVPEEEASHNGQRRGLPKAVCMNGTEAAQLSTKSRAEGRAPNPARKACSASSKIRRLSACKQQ

[14] = target: T14, panel of 370 protein kinases (Homo sapiens, UniProt Q76MJ5); settings: 2 h, kinase ERN2/IRE2; read-out: % Enzyme Activity (relative to DMSO controls)
T14 construct: purchased Reaction Biology Corporation (assay service)

[15] = target: T15, panel of 370 protein kinases (Homo sapiens, UniProt Q8WXR4); settings: 2 h, kinase MYO3b; read-out: % Enzyme Activity (relative to DMSO controls)
T15 construct: purchased Reaction Biology Corporation (assay service)

[16] = target: T16, panel of 370 protein kinases (Homo sapiens, UniProt Q96L34); settings: kinase MARK4
T16 construct: purchased Reaction Biology Corporation (assay service)
T16 sequence (Q96L34 whole entry): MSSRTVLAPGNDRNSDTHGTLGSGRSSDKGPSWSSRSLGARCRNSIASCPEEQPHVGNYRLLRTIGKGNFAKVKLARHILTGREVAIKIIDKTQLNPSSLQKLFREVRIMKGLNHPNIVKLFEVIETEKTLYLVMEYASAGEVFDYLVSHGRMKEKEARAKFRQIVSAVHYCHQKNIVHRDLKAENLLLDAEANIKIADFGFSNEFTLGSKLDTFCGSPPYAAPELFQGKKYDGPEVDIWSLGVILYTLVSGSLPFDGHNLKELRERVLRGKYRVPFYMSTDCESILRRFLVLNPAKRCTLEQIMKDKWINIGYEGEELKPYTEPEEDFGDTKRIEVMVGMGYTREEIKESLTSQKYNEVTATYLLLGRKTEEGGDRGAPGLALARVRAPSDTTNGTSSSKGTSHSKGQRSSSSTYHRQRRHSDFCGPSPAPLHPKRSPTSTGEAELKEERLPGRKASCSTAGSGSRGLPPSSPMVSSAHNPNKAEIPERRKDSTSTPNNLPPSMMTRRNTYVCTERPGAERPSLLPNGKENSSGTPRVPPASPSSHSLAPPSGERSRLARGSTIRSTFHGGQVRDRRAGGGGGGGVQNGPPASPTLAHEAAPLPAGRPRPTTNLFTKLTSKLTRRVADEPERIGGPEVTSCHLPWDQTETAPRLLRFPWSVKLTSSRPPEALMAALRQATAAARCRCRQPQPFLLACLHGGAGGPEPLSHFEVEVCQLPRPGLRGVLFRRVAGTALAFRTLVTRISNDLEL

[17] = target: T17, panel of 370 protein kinases (Homo sapiens, UniProt Q9BXA7); settings: 2 h, kinase STK22D/TSSK1; read-out: % Enzyme Activity (relative to DMSO controls)
T17 construct: purchased Reaction Biology Corporation (assay service)

[18] = target: T18, panel of 370 protein kinases (Homo sapiens, UniProt Q9H093); settings: kinase SNARK/NUAK2
T18 construct: purchased Reaction Biology Corporation (assay service)
T18 sequence (Q9H093 whole entry): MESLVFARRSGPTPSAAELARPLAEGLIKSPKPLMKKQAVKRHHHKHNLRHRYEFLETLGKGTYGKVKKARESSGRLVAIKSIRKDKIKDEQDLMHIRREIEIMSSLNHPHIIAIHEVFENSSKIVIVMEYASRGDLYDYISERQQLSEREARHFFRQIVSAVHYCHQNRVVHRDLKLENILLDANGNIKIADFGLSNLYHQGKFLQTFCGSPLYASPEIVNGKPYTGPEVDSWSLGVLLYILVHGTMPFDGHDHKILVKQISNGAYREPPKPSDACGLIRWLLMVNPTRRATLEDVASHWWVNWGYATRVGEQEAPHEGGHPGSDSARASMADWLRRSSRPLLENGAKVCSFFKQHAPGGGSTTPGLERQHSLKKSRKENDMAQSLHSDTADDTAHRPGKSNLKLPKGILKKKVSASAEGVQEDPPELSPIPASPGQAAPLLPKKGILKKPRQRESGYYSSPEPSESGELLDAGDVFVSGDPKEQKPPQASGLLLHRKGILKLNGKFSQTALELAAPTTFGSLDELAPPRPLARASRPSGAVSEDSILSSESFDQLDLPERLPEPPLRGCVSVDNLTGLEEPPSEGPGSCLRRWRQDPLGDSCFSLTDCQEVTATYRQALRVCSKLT

[19] = target: T19, panel of 370 protein kinases (Homo sapiens, UniProt Q9H2G2); settings: 2 h, kinase SLK/STK2; read-out: % Enzyme Activity (relative to DMSO controls)
T19 construct: purchased Reaction Biology Corporation (assay service)

[20] = target: T20, panel of 370 protein kinases (Homo sapiens, UniProt Q9NQU5); settings: 2 h, kinase PAK6; read-out: % Enzyme Activity (relative to DMSO controls)
T20 construct: purchased Reaction Biology Corporation (assay service)

[21] = target: T21, panel of 370 protein kinases (Homo sapiens, UniProt Q9UKE5); settings: 2 h, kinase TNIK; read-out: % Enzyme Activity (relative to DMSO controls)
T21 construct: purchased Reaction Biology Corporation (assay service)

[22] = target: T22, panel of 370 protein kinases (Homo sapiens, UniProt Q9UM73); settings: 2 h, kinase ALK; read-out: % Enzyme Activity (relative to DMSO controls)
T22 construct: purchased Reaction Biology Corporation (assay service)

CCN1CCN(C(=O)c2ccc(Nc3ncc(F)c(-c4ccc5nc(N(C)C)sc5c4)n3)nc2)CC1 [YK-2-69]
remaining activity at 1 µM [1]: 77.1% | % Enzyme Activity (relative to DMSO controls) [2]: 101.30% and 99.93% | % Enzyme Activity (relative to DMSO controls) [3]: 97.88% and 97.48% | % Enzyme Activity (relative to DMSO controls) [4]: 109.51% and 108.13% | remaining activity at 1 µM [5]: 106% | remaining activity at 1 µM [6]: 79.3% | remaining activity at 1 µM [7]: 80% | remaining activity at 1 µM [8]: 98.7% | remaining activity at 1 µM [9]: 88.6% | remaining activity at 1 µM [10]: 95.7% | remaining activity at 1 µM [11]: 92.8% | remaining activity at 1 µM [12]: 89.6% | remaining activity at 1 µM [13]: 111% | remaining activity at 1 µM [14]: 88.5% | remaining activity at 1 µM [15]: 106% | % Enzyme Activity (relative to DMSO controls) [16]: 79.55% and 79.20% | remaining activity at 1 µM [17]: 91.2% | % Enzyme Activity (relative to DMSO controls) [18]: 95.57% and 95.00% | remaining activity at 1 µM [19]: 94.5% | remaining activity at 1 µM [20]: 105% | remaining activity at 1 µM [21]: 70.5% | remaining activity at 1 µM [22]: 98.8%

Reference: article PMC9133015 (Nature Communications, 2022)
